Laboratory results as given in patent EP0166609A2, “Aryl derivatives of heterobicyclic compounds” (THE WELLCOME FOUNDATION LIMITED, priority 1984, dated 1986).

Test system: anaesthetised, open-chest beagle dogs
Assay: in vivo inotropic and vasodilatory activity, bolus intravenous injection
Conditions: for ED30 / ED50: Canis lupus familiaris, bolus intravenous injection; for ED30: read-out: ED30D.B.P. (effective intravenous dose to produce a 30% decrease in diastolic blood pressure); for ED50: read-out: ED50L.V. dP/dt (effective intravenous dose of compound to produce a 50% increase in L.V. dP/dt); for Selectivity ED50L.V. dP/dt / ED30D.B.P. / Tr (duration of inotropic response): intravenous; for Tr (duration of inotropic response): time in which a 50% increase in L.V. dp/dt would return to pre-dose levels
Protocol: Determination of in vivo Inotropic and Vasodilatory Activity Compounds according to the present invention were tested in vivo in comparison with the compound 2-(2-methoxy-4-methylsulphinylphenyl)imidazo[1,2-a]pyrazine (hereinafter referred to as compound 'X' disclosed in UK patent specification No. 2 132 203 A. The compounds were tested in anaesthetised, open-chest beagle dogs by bolus intravenous injection to produce a dose-related positive inotropic stimulation (as measured by the increase in the maximum rate of change of the left ventricular pressure -,L.V. dp/dt) over the dose range of 0.003 - 3.0 mg/kg. This was accompanied by a dose-related increase in aortic blood flow, and a fall in systemic blood pressure (see Table below). In these preparations, the duration of inotropic response was estimated by measuring the time in which a 50% increase in L.V. dp/dt would return to pre-dose levels. The duration is shown in the table below and for some of the compounds is given as a range. [table]

SMILES	ED30	ED50	Selectivity ED50L.V. dP/dt / ED30D.B.P.	Tr (duration of inotropic response)
COc1cc(C(C)=O)ccc1-c1cn2ccncc2n1 [Example 7, 2-(2-methoxy-4-acetylphenyl)imidazo[1,2-a]pyrazine]	0.1 mg/kg	0.03 mg/kg	0.30	10 min
COc1cc([S+](C)[O-])ccc1-c1cn2ccncc2n1 (stereo not drawn) [X, 2-(2-methoxy-4-methylsulphinylphenyl)imidazo[1,2-a]pyrazine, reference compound]	0.028 mg/kg	0.75 mg/kg	26.8	5 min
COc1cc(OS(C)(=O)=O)ccc1-c1cn2ccnc(OC)c2n1 [Example 4, 8-methoxy-2-(2-methoxy-4-methylsulphonyloxyphenyl)imidazo[1,2-a]pyrazine]	0.06 mg/kg	0.07 mg/kg	1.22	45 to 60 min
COc1cc([S+](C)[O-])ccc1-c1cn2ccnc(OC)c2n1 (stereo not drawn) [Example 3, 8-methoxy-2-(2-methoxy-4-methylsulphinylphenyl)imidazo[1,2-a]pyrazine]	1.17 mg/kg	0.91 mg/kg	0.08	60 min
COc1cc(C(N)=O)ccc1-c1cn2ccnc(OC)c2n1.Cl [Example 5, 2-(2-methoxy-4-carbamoylphenyl)-8-methoxy-imidazo[1,2-a]pyrazine hydrochloride]	0.15 mg/kg	0.06 mg/kg	0.39	30 to 45 min
COc1cc(C(N)=O)ccc1-c1cn2ccncc2n1 [Example 1, 2-(2-Methoxy-4-carbamoylphenyl)-imidazo[1,2-a]pyrazine]	0.05 mg/kg	0.02 mg/kg	0.4	>30 min
